{"source": "patent US9815847B2", "about": "(Icahn School of Medicine at Mount Sinai, priority 2013, dated 2017)", "key": {"K562": {"system": "K562", "assay": "Cytotoxicity on K562 cancer cell line", "assay_type": "cell-based", "conditions": "Homo sapiens; K562 chronic myelogenous leukemia; 96 h; 0.01-100 μM", "procedure": "(§1) The effect of the compounds described herein on tumor cells was determined by the assay described by Latham et al., Oncogene 12:827-837 (1996). Tumor cells K562 (chronic myelogenous leukemia; leukemia cell line +ve for Bcr-Abl) or DU145 (prostate cancer) were plated in 12-well dishes at a cell density of 2.5×10^4 cells per well. The plated cells were treated 24 h. later with a DMSO solution of a compound as described herein at multiple concentrations ranging from 0.01 μM to 100 μM. The plates were examined 96 h. later under an inverted microscope, Olympus CK-2 using a 10× objective, and compound activity was noted by physical observation. When necessary, the total number of viable cells was determined by trypsinizing the wells and counting the number of viable cells, as determined by trypan blue exclusion, using a hemacytometer."}, "DU145": {"system": "DU145", "assay": "Cytotoxicity on DU145 cancer cell line", "assay_type": "cell-based", "conditions": "Homo sapiens, DU-145; DU145 prostate cancer; 96 h; 0.01-100 μM", "procedure": "as §1"}}, "data": [{"smiles": "CNc1nc(Nc2ccc(N3CCN(C)CC3)cc2)ncc1/C=C/C#N", "note": "[Compound 8b, 3-{4-Methylamino-2-[4-(4-methylpiperazin-1-yl)-phenylamino]pyrimidin-5-yl}acrylonitrile]", "values": [{"measurement": "IC50", "setting": "K562", "result": "< 1", "unit": "µM"}, {"measurement": "IC50", "setting": "DU145", "result": "1 to 25", "unit": "µM"}]}, {"smiles": "N#C/C=C/c1cnc(Nc2ccc3[nH]ccc3c2)nc1NC1CCCC1", "note": "[Compound 8k, 3-[4-Cyclopentylamino-2-(1H-indol-5-ylamino)pyrimidin-5-yl]acrylonitrile]", "values": [{"measurement": "IC50", "setting": "K562", "result": "< 1", "unit": "µM"}, {"measurement": "IC50", "setting": "DU145", "result": "1 to 25", "unit": "µM"}]}, {"smiles": "N#C/C=C/c1cnc(NCc2ccccc2)nc1NC1CCCC1", "note": "[Compound 8p, 3-[2-(Benzylamino)-4-(cyclopentylamino)pyrimidin-5-yl]acrylonitrile]", "values": [{"measurement": "IC50", "setting": "K562", "result": "25 to 50", "unit": "µM"}, {"measurement": "IC50", "setting": "DU145", "result": "25 to 50", "unit": "µM"}]}, {"smiles": "COc1ccc(S(=O)(=O)/C=C/c2cnc(Nc3ccc(N4CCN(C)CC4)cc3)nc2NC2CCCC2)cc1", "note": "[Compound 15j, (E)-N^4-Cyclopentyl-5-{2-[(4-methoxyphenyl)sulfonyl]vinyl}-N^2-[4-(4-methylpiperazin-1-yl)phenyl]pyrimidine-2,4-diamine]", "values": [{"measurement": "IC50", "setting": "K562", "result": "1 to 25", "unit": "µM"}, {"measurement": "IC50", "setting": "DU145", "result": "1 to 25", "unit": "µM"}]}, {"smiles": "CNc1nc(Nc2ccc3[nH]ccc3c2)ncc1/C=C/C#N", "note": "[Compound 8m, 3-[2-(1H-Indol-5-ylamino)-4-(methylamino)pyrimidin-5-yl]acrylonitrile]", "values": [{"measurement": "IC50", "setting": "K562", "result": "< 1", "unit": "µM"}, {"measurement": "IC50", "setting": "DU145", "result": "< 1", "unit": "µM"}]}, {"smiles": "CCN1CCN(c2ccc(Nc3ncc(/C=C/C#N)c(NCC4CC4)n3)cc2)CC1", "note": "[Compound 8t, 3-{4-[(Cyclopropylmethyl)amino]-2-[4-(4-ethylpiperazin-1-yl)phenylamino]pyrimidin-5-yl}acrylonitrile]", "values": [{"measurement": "IC50", "setting": "K562", "result": "< 1", "unit": "µM"}, {"measurement": "IC50", "setting": "DU145", "result": "< 1", "unit": "µM"}]}, {"smiles": "N#C/C=C/c1cnc(Nc2ccc3[nH]ccc3c2)nc1NCC1CC1", "note": "[Compound 8u, 3-{4-[(Cyclopropylmethyl)amino]-2-[(1H-indol-5-yl)amino]pyrimidin-5-yl)acrylonitrile]", "values": [{"measurement": "IC50", "setting": "K562", "result": "< 1", "unit": "µM"}, {"measurement": "IC50", "setting": "DU145", "result": "< 1", "unit": "µM"}]}, {"smiles": "CN1CCN(c2ccc(N(C(=O)CCCC[C@@H]3SC[C@@H]4NC(=O)N[C@@H]43)c3ncc(/C=C/C#N)c(NC4CCCC4)n3)cc2)CC1", "note": "[Compound 8y, N-[5-(2-Cyanovinyl)-4-(cyclopentylamino)pyrimidin-2-yl]-N-[4-(4-methylpiperazin-1-yl)phenyl]-5-((3aS,4S,6aR)-2-oxohexahydro-1H-thieno[3,4-d]imidazol-4-yl)pentanamide]", "values": [{"measurement": "IC50", "setting": "K562", "result": "1 to 25", "unit": "µM"}, {"measurement": "IC50", "setting": "DU145", "result": "1 to 25", "unit": "µM"}]}, {"smiles": "CN1CCN(c2ccc(Nc3ncc(/C=C/C#N)c(N)n3)cc2)CC1", "note": "[Compound 8a, 3-{4-Amino-2-[4-(4-methylpiperazin-1-yl)phenylamino]pyrimidin-5-yl}acrylonitrile]", "values": [{"measurement": "IC50", "setting": "K562", "result": "1 to 25", "unit": "µM"}, {"measurement": "IC50", "setting": "DU145", "result": "1 to 25", "unit": "µM"}]}, {"smiles": "CNc1nc(Nc2ccc3[nH]ncc3c2)ncc1/C=C/S(=O)(=O)c1ccc(F)cc1F", "note": "[Compound 15i, (E)-5-{2-[(2,4-Difluorophenyl)sulfonyl]vinyl}-N^2-(1H-indazol-5-yl)-N-methylpyrimidine-2,4-diamine]", "values": [{"measurement": "IC50", "setting": "K562", "result": "1 to 25", "unit": "µM"}, {"measurement": "IC50", "setting": "DU145", "result": "1 to 25", "unit": "µM"}]}, {"smiles": "CNc1nc(Nc2ccc(N3CCN(C)CC3)cn2)ncc1/C=C/S(=O)(=O)c1ccc(F)cc1F", "note": "[Compound 15l, (E)-5-{2-[(2,4-Difluorophenyl)sulfonyl]vinyl}-N^4-methyl-N^2-[5-(4-methylpiperazin-1-yl)pyridin-2-yl]pyrimidine-2,4-diamine]", "values": [{"measurement": "IC50", "setting": "K562", "result": "1 to 25", "unit": "µM"}, {"measurement": "IC50", "setting": "DU145", "result": "1 to 25", "unit": "µM"}]}, {"smiles": "CN1CCN(c2ccc(Nc3ncc(/C=C/C#N)c(NC4CCCC4)n3)nc2)CC1", "note": "[Compound 8q, 3-(4-(Cyclopentylamino)-2-((5-(4-methylpiperazin-1-yl)pyridin-2-yl)amino)pyrimidin-5-yl)acrylonitrile]", "values": [{"measurement": "IC50", "setting": "K562", "result": "< 1", "unit": "µM"}, {"measurement": "IC50", "setting": "DU145", "result": "< 1", "unit": "µM"}]}, {"smiles": "COc1ccc(Nc2ncc(/C=C/S(=O)(=O)c3ccc(OC)cc3)c(NC3CCCC3)n2)cc1", "note": "[Compound 15m, (E)-N^4-Cyclopentyl-N^2-(4-methoxyphenyl)-5-{2-[(4-methoxyphenyl)sulfonyl]vinyl}pyrimidine-2,4-diamine]", "values": [{"measurement": "IC50", "setting": "K562", "result": "1 to 25", "unit": "µM"}, {"measurement": "IC50", "setting": "DU145", "result": "1 to 25", "unit": "µM"}]}, {"smiles": "CC(C)Nc1nc(Nc2ccc(N3CCN(C)CC3)cc2)ncc1/C=C/C#N", "note": "[Compound 8e, 3-{4-Isopropylamino-2-[4-(4-methylpiperazin-1-yl)phenylamino]pyrimidin-5-yl}acrylonitrile]", "values": [{"measurement": "IC50", "setting": "K562", "result": "< 1", "unit": "µM"}, {"measurement": "IC50", "setting": "DU145", "result": "< 1", "unit": "µM"}]}, {"smiles": "COc1cc(N2CCN(C)CC2)ccc1Nc1ncc(/C=C/C#N)c(NC2CCCC2)n1", "note": "[Compound 8bb, (E)-3-[4-(Cyclopentylamino)-2-{[2-methoxy-4-(4-methylpiperazin-1-yl)phenyl]amino}pyrimidin-5-yl]acrylonitrile]", "values": [{"measurement": "IC50", "setting": "K562", "result": "1 to 25", "unit": "µM"}, {"measurement": "IC50", "setting": "DU145", "result": "1 to 25", "unit": "µM"}]}, {"smiles": "CNc1nc(Nc2ccc3cc[nH]c3c2)ncc1/C=C/S(=O)(=O)c1ccc(F)cc1F", "note": "[Compound 15c, 5-{2-[2,4-(Difluorophenyl)sulfonyl]vinyl}-N^2-(1H-indol-6-yl)-N^4-methylpyrimidine-2,4-diamine]", "values": [{"measurement": "IC50", "setting": "K562", "result": "1 to 25", "unit": "µM"}, {"measurement": "IC50", "setting": "DU145", "result": "1 to 25", "unit": "µM"}]}, {"smiles": "CNc1nc(Nc2cc(OC)c(OC)c(OC)c2)ncc1/C=C/S(=O)(=O)c1ccc(F)cc1F", "note": "[Compound 15g, (E)-5-{2-[(2,4-Difluorophenyl)sulfonyl]vinyl}-N^4-methyl-N^2-(3,4,5-trimethoxyphenyl)pyrimidine-2,4-diamine]", "values": [{"measurement": "IC50", "setting": "K562", "result": "50 to 100", "unit": "µM"}, {"measurement": "IC50", "setting": "DU145", "result": "1 to 25", "unit": "µM"}]}, {"smiles": "Cn1ccc(Nc2nc(Nc3ccc4ncccc4c3)ncc2/C=C/S(=O)(=O)c2ccc(F)cc2F)n1", "note": "[Compound 15u, (E)-5-{2-[(2,4-Difluorophenyl)sulfonyl]vinyl}-N^4-(1-methyl-1H-pyrazol-3-yl)-N^2-(quinolin-6-yl)pyrimidine-2,4-diamine]", "values": [{"measurement": "IC50", "setting": "K562", "result": "1 to 25", "unit": "µM"}, {"measurement": "IC50", "setting": "DU145", "result": "1 to 25", "unit": "µM"}]}, {"smiles": "CNc1nc(Nc2ccc3[nH]cnc3c2)ncc1/C=C/S(=O)(=O)c1ccc(F)cc1F", "note": "[Compound 15n, (E)-N^2-(1H-Benzo[d]imidazol-5-yl)-5-{2-[(2,4-difluorophenyl)sulfonyl]vinyl}-N^4-methylpyrimidine-2,4-diamine]", "values": [{"measurement": "IC50", "setting": "K562", "result": "1 to 25", "unit": "µM"}, {"measurement": "IC50", "setting": "DU145", "result": "1 to 25", "unit": "µM"}]}, {"smiles": "CCCNc1nc(Nc2ccc(N3CCN(C)CC3)cc2)ncc1/C=C/C#N", "note": "[Compound 8d, 3-{4-Propylamino-2-[4-(4-methylpiperazin-1-yl)phenylamino]pyrimidin-5-yl}acrylonitrile]", "values": [{"measurement": "IC50", "setting": "K562", "result": "< 1", "unit": "µM"}, {"measurement": "IC50", "setting": "DU145", "result": "< 1", "unit": "µM"}]}, {"smiles": "CCN1CCN(c2ccc(Nc3ncc(/C=C/C#N)c(NC4CCCC4)n3)cc2)CC1", "note": "[Compound 8o, 3-{4-Cyclopentylamino-2-[4-(1-ethylpiperazin-4-yl)-phenylamino]-pyrimidin-5-yl}acrylonitrile]", "values": [{"measurement": "IC50", "setting": "K562", "result": "< 1", "unit": "µM"}, {"measurement": "IC50", "setting": "DU145", "result": "< 1", "unit": "µM"}]}, {"smiles": "CN1CCN(c2ccc(Nc3ncc(/C=C/C#N)c(NC4CCCCC4)n3)cc2)CC1", "note": "[Compound 8i, 3-{4-Cyclohexylamino-2-[4-(4-methylpiperazin-1-yl)phenylamino]pyrimidin-5-yl}acrylonitrile]", "values": [{"measurement": "IC50", "setting": "K562", "result": "< 1", "unit": "µM"}, {"measurement": "IC50", "setting": "DU145", "result": "1 to 25", "unit": "µM"}]}, {"smiles": "N#C/C=C/c1cnc(N2CCOCC2)nc1NC1CCCC1", "note": "[Compound 8z, (E)-3-[4-(Cyclopentylamino)-2-morpholinopyrimidin-5-yl]acrylonitrile]", "values": [{"measurement": "IC50", "setting": "K562", "result": "1 to 25", "unit": "µM"}, {"measurement": "IC50", "setting": "DU145", "result": "1 to 25", "unit": "µM"}]}, {"smiles": "CN1CCN(c2ccc(Nc3ncc(/C=C/S(=O)(=O)c4ccc(F)cc4F)c(Nc4ccn(C)n4)n3)cc2)CC1", "note": "[Compound 15r, (E)-5-{2-[(2,4-Difluorophenyl)sulfonyl]vinyl}-N^4-(1-methyl-1H-pyrazol-3-yl)-N^2-[4-(4-methylpiperazin-1-yl)phenyl]pyrimidine-2,4-diamine]", "values": [{"measurement": "IC50", "setting": "K562", "result": "1 to 25", "unit": "µM"}, {"measurement": "IC50", "setting": "DU145", "result": "1 to 25", "unit": "µM"}]}]}
